Measured values taken from patent US4198504A, “[3-(Pyridinium)-7-(naphthyiridinyl carbonylamino)acetamido]cephalosporanic acid derivatives” (Bristol-Myers Company, priority 1978, dated 1980).
Values after ≈ are worked out from the molar mass of the structure shown.

Assays:
[1] = system: Escherichia coli Juhl; assay: In vivo efficacy, experimental infection in mice, intramuscular treatment, Escherichia coli Juhl; set-up: species or system Escherichia coli (infected mice); conditions: im, 120 h, I.M., 100×LD50 challenge i.p., 5 days, read-out: PD50 Escherichia coli Juhl
Experimental: (§1) The in vivo efficacy was evaluated by intramuscular treatment against three kinds of experimental infection in mice.
(§2) The in vivo tests were carried out using the following three pathogenic organisms:
(§3) Mice were challenged intraperitoneally with approximately a 100×LD50 dose of the pathogens in a 5% mucin suspension. The mice were treated with test compound by I.M. route immediately after the bacterial challenge.

[2] = system: Staphylococcus aureus Smith; assay: In vivo efficacy, experimental infection in mice, intramuscular treatment, Staphylococcus aureus Smith; set-up: species or system Staphylococcus aureus (infected mice); conditions: im, 120 h, I.M., 100×LD50 challenge i.p., 5 days, read-out: PD50 Staphylococcus aureus Smith
Experimental: as §1, §2
Staphylococcus aureus Smith
as §3

[3] = Antibiotic blood levels in mice following intramuscular administration (paper disc-agar diffusion, Escherichia coli NIHJ as assay organism); format: in vivo; conditions: mouse, im, I.M., 20 mg./kg.; for half-life: read-out: Blood level, Half-life; for Cmax: read-out: Blood level, Peak Concentration
Experimental: Antibiotic blood levels were determined in mice following intramuscular administration of the test compounds at 20 mg./kg. The blood samples were collected from the orbital sinuses into heparinized capillary tubes at 15, 30, 60 and 120 minutes after administration. The antibiotic concentration was determined by the paper disc-agar diffusion method using Escherichia coli NIHJ as the assay organism.

[4] = system: Ps. aeruginosa; assay: In vitro MIC, serial two-fold agar dilution, primary evaluation Ps (6 strains); format: cell-based; conditions: CBPC = 100%; geometric mean of MICs; Mueller-Hinton agar
Experimental: (§4) Minimun inhibitory concentrations (MIC) were determined by the serial two-fold agar dilution method using Steers' apparatus on Mueller-Hinton agar plate against 31 test organisms for the primary screening and also against 64 strains of Pseudomonas aeruginosa for the secondary evaluation. The results are shown in Table 1 in terms of relative activity with respect to the standard compound CBPC (carbenicillin) which was set at 100%. In each group the calculation was based on the geometric mean of the observed MICs.
Ps. = Ps. aeruginosa (6).

[5] = system: Ent. cloacae (3), Pr. vulgaris (1), Pr. morganii (1), S. marcescen (1); assay: In vitro MIC, serial two-fold agar dilution, primary evaluation Gn-II (Ent. cloacae, Pr. vulgaris, Pr. morganii, S. marcescens); format: cell-based; conditions: CBPC = 100%; geometric mean of MICs; Mueller-Hinton agar
Experimental: as §4
GnII = Ent. cloacae (3), Pr. vulgaris (1), Pr. morganii (1), S. marcescen

[6] = system: Pseudomonas aeruginosa A9843; assay: In vivo efficacy, experimental infection in mice, intramuscular treatment, Pseudomonas aeruginosa A9843; set-up: species or system Pseudomonas aeruginosa (infected mice); conditions: A9843, im, 120 h, I.M., 100×LD50 challenge i.p., 5 days, read-out: PD50 Pseudomonas aeruginosa A9843
Experimental: as §1, §2
Pseudomonas aeruginosa A9843
as §3

[7] = system: E. coli (9), Klebsiella sp. (2), Pr. mirabilis (1), Sal. enteritidis (1); assay: In vitro MIC, serial two-fold agar dilution, primary evaluation Gn-I (E. coli, Klebsiella sp., Pr. mirabilis, Sal. enteritidis); format: cell-based; conditions: CBPC = 100%; geometric mean of MICs; Mueller-Hinton agar
Experimental: as §4
GnI = E. coli (9), Klebsiella sp. (2), Pr. mirabilis (1), Sal.

[8] = system: Pseudomonas aeruginosa; assay: In vitro MIC, serial two-fold agar dilution, secondary evaluation against Pseudomonas aeruginosa strains; format: cell-based; conditions: CBPC = 100%; geometric mean of MICs; 61-64 strains
Experimental: as §4

[9] = system: S. aureus; assay: In vitro MIC, serial two-fold agar dilution, primary evaluation Gp (S. aureus, 6 strains); format: cell-based; conditions: CBPC = 100%; geometric mean of MICs; Mueller-Hinton agar
Experimental: as §4
*GP = S. aureus (6 strains);

[10] = Solubility in water; format: physicochemical; conditions: lyophilized product, read-out: dissolved readily in water to give a solution
Experimental: This unfortunate characteristic renders them unsuitable for use by intravenous administration. Acceptable solubility for such use is at least 125 mgm./ml. so that 250 mgm. can be administered in 2 ml. of sterile solution. Suspensions cannot, of course, be administered intravenously. […] The latter would make possible a dosage of 500 mgm. in a 2 ml. vial.
To a mixture of nicotinic acid (492 mg., 4 m.moles) and NaHCO3 (336 mg., 4 m.moles) in 2 ml. of water were added sodium 7-[D-α-(4-hydroxy-1,5-naphthyridine-3-carboxamido)-α-phenylacetamido]cephalosporanate^(3), (600 mg., 1 m.mole) and KSCN (2.4 g., 25 m.moles) and the mixture was allowed to stand overnight at 50°-52° C. The reaction mixture was placed on the top of an HP-20 column (.phi. 10 mm., 90 ml.). The column was developed with 1 L each of water, 30% aqueous MeOH and 50% aqueous MeOH. The eluate was collected in 20-ml. fractions, monitoring with tlc (silica-gel plate, CH3 CN:H2 O=4:1, detected with I2). The desired product was found in the fractions eluted with 30% aqueous MeOH, which were combined and concentrated under reduced pressure. The concentrates showing a neutral pH were lyophilized to give 105 mg. (16%) of BB-S606, which dissolved readily in water to give a 25% (w/v) solution. It started to melt around 280° C. with gradual decomposition.

Row | Compound | ED50 [1] [mg/kg] | ED50 [2] [mg/kg] | half-life [3] [min] | Cmax [3] [ng/mL] | In vitro relative activity, primary evaluation Ps (6) [4] [%] | In vitro relative activity, primary evaluation Gn-II (6) [5] [%] | ED50 [6] [mg/kg] | In vitro relative activity, primary evaluation Gn-I (13) [7] [%] | In vitro relative activity, secondary, Pseudomonas aeruginosa (61-64) [8] [%] | In vitro relative activity, primary evaluation Gp (6) [9] [%] | solubility [10] [mg/mL]
1 | O=C(O)CSc1cc[n+](CC2=C(C(=O)[O-])N3C(=O)C(NC(=O)[C@H](NC(=O)c4cnc5cccnc5c4O)c4ccc(O)cc4)C3SC2)cc1 (stereo partly drawn) [BB-S599, 7-[D-α-(4-Hydroxy-1,5-naphthyridine-3-carboxamido)-α-(4-hydroxyphenyl)acetamido]-3-(4-carboxymethylthiopyridinium)-methyl-3-cephem-4-carboxylate] | 2.4 | 2.2 | 54 | 7800 | 2180 | 83 | 8.4 | 260 | 2010 | 35 | –
2 | O=C([O-])C1=C(C[n+]2cccc(C(=O)O)c2)CSC2C(NC(=O)[C@H](NC(=O)c3cnc4cccnc4c3O)c3ccc(O)c(Cl)c3)C(=O)N12 (stereo partly drawn) [BB-S600, 7-[D-α-(4-Hydroxy-1,5-naphthyridine-3-carboxamido)-α-(3-chloro-4-hydroxyphenyl)acetamido]-3-(3-carboxypyridinium)-methyl-3-cephem-4-carboxylate] | 2.2 | 2 | 70 | 6200 | 2340 | 30 | 6.2 | 107 | 2500 | 70 | –
3 | O=C(O)C=Cc1ccc[n+](CC2=C(C(=O)[O-])N3C(=O)C(NC(=O)[C@H](NC(=O)c4cnc5cccnc5c4O)c4ccc(O)c(Cl)c4)C3SC2)c1 (stereo partly drawn) [BB-S602, 7-[D-α-(4-Hydroxy-1,5-naphthyridine-3-carboxamido)-α-(3-chloro-4-hydroxyphenyl)acetamido]-3-(3-carboxyvinylpyridinium)-methyl-3-cephem-4-carboxylate] | 1.4 | 0.8 | 60 | 8000 | 2080 | 63 | 8.4 | 94 | 1530 | 58 | –
4 | O=C(O)C=Cc1ccc[n+](CC2=C(C(=O)[O-])N3C(=O)C(NC(=O)[C@H](NC(=O)c4cnc5cccnc5c4O)c4ccccc4)C3SC2)c1 (stereo partly drawn) [BB-S603, 7-[D-α-(4-Hydroxy-1,5-naphthyridine-3-carboxamide)-α-phenyl-acetamido]-3-(3-carboxyvinylpyridinium)methyl-3-cephem-4-carboxylate] | 2.2 | 1.15 | 44 | 9000 | 1150 | 38 | 18 | 80 | 1270 | 73 | –
5 | O=C(O)Cc1ccc[n+](CC2=C(C(=O)[O-])N3C(=O)C(NC(=O)[C@H](NC(=O)c4cnc5cccnc5c4O)c4ccc(O)c(Cl)c4)C3SC2)c1 (stereo partly drawn) [BB-S604, 7-[D-α-(4-Hydroxy-1,5-naphthyridine-3-carboxamido)-α-(3-chloro-4-hydroxyphenyl)acetamido]-3-(3-carboxymethylpyridinium)-methyl-3-cephem-4-carboxylate] | 2.4 | 2.5 | 56 | 10500 | 1450 | 45 | 6.2 | 94 | 2030 | 50 | –
6 | O=C([O-])C1=C(C[n+]2ccc(CCS(=O)(=O)O)cc2)CSC2C(NC(=O)[C@H](NC(=O)c3cnc4cccnc4c3O)c3ccc(O)c(Cl)c3)C(=O)N12 (stereo partly drawn) [BB-S605, 7-[D-α-(4-Hydroxy-1,5-naphthyridine-3-carboxamido)-α-(3-chloro-4-hydroxyphenyl)acetamido]-3-(4-sulfoethylpyridinium)-methyl-3-cephem-4-carboxylate] | 3.1 | 3.1 | 54 | 9400 | 1310 | 40 | 8.4 | 83 | 1300 | 40 | –
7 | O=C([O-])C1=C(C[n+]2cccc(C(=O)O)c2)CSC2C(NC(=O)[C@H](NC(=O)c3cnc4cccnc4c3O)c3ccccc3)C(=O)N12 (stereo partly drawn) [BB-S606, 7-[D-α-(4-Hydroxy-1,5-naphthyridine-3-carboxamido)-α-phenyl-acetamido]-3-(3-carboxypyridinium)methyl-3-cephem-4-carboxylate] | – | 4.2 | 55 | 11000 | 656 | 11 | 25 | 16 | 624 | 45 | 250 (≈ 390 mM)
8 | O=C([O-])C1=C(C[n+]2cccc(C(=O)O)c2)CSC2C(NC(=O)[C@H](NC(=O)c3cnc4cccnc4c3O)c3ccc(O)c(O)c3)C(=O)N12 (stereo partly shown) [BB-S608] | 1.4 | 8.5 | 50 | 8500 | 975 | 14 | 2.4 | 53 | 1207 | 13 | –
9 | O=C([O-])C1=C(C[n+]2cccc(S(=O)(=O)O)c2)CSC2C(NC(=O)[C@H](NC(=O)c3cnc4cccnc4c3O)c3ccc(O)c(O)c3)C(=O)N12 (stereo partly drawn) [BB-S609, 7-[D-α-(4-Hydroxy-1,5-naphthyridine-3-carboxamido)-α-(3,4-dihydroxyphenyl)acetamido]-3-(3-sulfopyridinium)methyl-3-cephem-4-carboxylate] | 1.8 | 17 | 51 | 7400 | 1450 | 11 | 1.2 | 53 | 1375 | 18 | –
10 | O=C(O)C=Cc1ccc[n+](CC2=C(C(=O)[O-])N3C(=O)C(NC(=O)[C@H](NC(=O)c4cnc5cccnc5c4O)c4ccc(O)c(O)c4)C3SC2)c1 (stereo partly shown) [BB-S610] | 1.8 | 17 | 60 | 6200 | 656 | 14 | 2.8 | 57 | 491 | 16 | –
